Key:
hDGAT2 = hDGAT2 (Homo sapiens (Human), UniProt Q96PD7); assay: In vitro DGAT2 assay, hDGAT2 membrane fraction, [14C]decanoyl-CoA scintillation readout; type: biochemical; conditions: geometric mean; FLAG-hDGAT2 membrane fraction; 2 h preincubation; read-out: IC50 for inhibition of DGAT2
Description: Recombinant baculovirus for the FLAG-tagged hDGAT2 was generated in SF9 insect cells using Bac-to-Bac baculovirus expression system (Invitrogen) according to the manufacturer's protocol. For the expression of hDGAT2, SF9 cells (20 L) grown in Sf90011 media were infected with hDGAT2 baculovirus at a multiplicity of infection of 1 in a Wave Bioreactor System 20/50P wave bag (GE Healthcare). After 40 hours of infection, the cells were then harvested by centrifugation at 5,000×g. The cell pellets were washed by resuspending in phosphate buffered saline (PBS) and collected by centrifugation at 5,000×g. The cell paste was flash frozen in liquid N2 and stored at −80° C. until needed. All operations below were at 4° C. unless otherwise noted. The cells were resuspended in lysis buffer (50 mM Tris-HCl, pH 8.0, 250 mM sucrose) including 1 mM ethylenediaminetetraacetic acid (EDTA) and the complete protease inhibitor cocktail (Roche Diagnostics) at a ratio of 3 ml buffer per 1 g cell paste. The cells were lysed by dounce homogenizer. The cell debris was removed by centrifugation at 1,000×g for 20 min, and the supernatant was centrifuged at 100,000×g for 1 hour. The resulting pellet was rinsed three times by filling ultracentrifuge tubes to the top with ice cold PBS before decanting. The washed pellet was resuspended with gentle stirring for 1 hour in lysis buffer containing 8 mM 3-[(3-cholamidopropyl)dimethylammonio]-1-propanesulfonate (CHAPS) at a ratio of 1 mL buffer per 1 g of original cell paste and centrifuged again at 100,000×g for 1 hour. The resulting supernatant was aliquotted, flash frozen in liquid N2, and stored at −80° C. until use.
For determination of IC50 values, the reactions were carried out in 384-well white Polyplates (Perkin Elmer) in a total volume of 20 μL. To […] compounds dissolved in 100% DMSO and spotted at the bottom of each well, 5 μL of 0.04% bovine serum albumin (BSA) (fatty acid free, Sigma Aldrich) was added and the mixture was incubated at room temperature for 20 minutes. To this mixture, 10 μL of hDGAT2 membrane fraction (0.01 mg/mL) diluted in 100 mM Hepes-NaOH, pH 7.4, 20 mM MgCl2 containing 200 nM methyl arachidonyl fluorophosphonate (Cayman Chemical; dried from ethyl acetate stock solution under argon gas and dissolved in DMSO as 5 mM stock) was added. After this mixture was preincubated at room temperature for 2 hours, DGAT2 reactions were initiated by the addition of 4 μL of substrates containing 30 μM [1-^14C]decanoyl-CoA (custom-synthesized by Perkin Elmer, 50 mCi/mmol) and 125 μM 1,2-didecanoyl-sn-glycerol (Avanti Polar Lipids) dissolved in 12.5% acetone. The reaction mixtures were incubated at room temperature for 40 min and the reactions were stopped by addition of 5 μL of 1% H3PO4. After the addition of 45 μL MicroScint-E (Perkin-Elmer), plates were sealed with Top Seal-A covers (Perkin-Elmer) and phase partitioning of substrates and products was achieved using a HT-91100 microplate orbital shaker (Big Bear Automation, Santa Clara, Calif.). Plates were centrifuged at 2,000×g for 1 min in an Allegra 6R Centrifuge (Beckman Coulter) and then were sealed again with fresh covers before reading in a 1450 Microbeta Wallac Trilux Scintillation Counter (Perkin Elmer). DGAT2 activity was measured by quantifying the generated product [^14C]tridecanoylglycerol in the upper organic phase.
Inhibitors were tested at eleven different concentrations to generate IC50 values for each compound.

[1] = target: DGAT2 in primary human hepatocytes (Homo sapiens (Human), UniProt Q96PD7); assay: IC50 for DGAT2 inhibitors in human hepatocytes, [14C]-glycerol incorporation into lipids; type: cell-based; conditions: average; cryopreserved human hepatocytes; selective DGAT1 inhibitor 3 μM in all wells; 3 hour incubation; read-out: IC50 in primary human hepatocytes
Sequence of DGAT2 in primary human hepatocytes (Q96PD7 whole entry): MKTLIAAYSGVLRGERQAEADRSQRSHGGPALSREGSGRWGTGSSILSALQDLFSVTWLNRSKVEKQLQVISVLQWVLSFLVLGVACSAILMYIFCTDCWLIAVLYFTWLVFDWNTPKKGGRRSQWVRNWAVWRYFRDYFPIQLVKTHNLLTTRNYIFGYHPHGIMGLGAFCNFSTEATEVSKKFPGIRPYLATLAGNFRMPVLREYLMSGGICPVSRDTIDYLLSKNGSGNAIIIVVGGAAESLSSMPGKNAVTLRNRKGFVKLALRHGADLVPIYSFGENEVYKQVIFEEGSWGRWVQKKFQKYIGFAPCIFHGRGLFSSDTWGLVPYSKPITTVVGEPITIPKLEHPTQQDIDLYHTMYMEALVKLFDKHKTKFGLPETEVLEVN
Description: For evaluation of the effects of DGAT2 inhibitors in a cell-based setting, cryopreserved human hepatocytes (Lot QOC and NON, Celsis, Chicago, Ill.) were thawed and plated onto type I collagen-coated plates according to the manufacturer's instructions. After 24 hours overnight recovery period, the cells were overlayed with media containing 250 μg/ml Matrigel (BD Biosciences, San Jose, Calif.). The following day, media was aspirated and replaced with serum-free Williams Media E (Life Technologies, Grand Island, N.Y.) containing 400 μM sodium dodecanoate (Sigma-Aldrich, St. Louis, Mo.). Forty minutes later, DGAT2 inhibitors (prepared as 100× stocks in 25% DMSO, 75% Williams' Media E) were added to the desired final concentration. […] After a 20 minute preincubation, 0.2 μCi [1,3-^14C]-glycerol glycerol (American Radio Chemicals, St. Louis, Mo.) was added to each well and mixed by gentle pipetting prior to a 3 hour incubation. At this point, media was aspirated and the cells were lysed in isopropyl alcohol: tetrahydrofuran (9:1) prior to centrifugation at 3000 rpm for 5 minutes. Radiolabeled lipids were resolved using a 2-solvent system by thin layer chromatography using standard technique (solvent 1 contained ethyl acetate:isopropyl alcohol:chloroform:methanol:0.25% potassium chloride in water (100:100:100:40.2:36.1, v/v/v/v) and solvent 2 contained hexane: diethyl ether: acetic acid (70:27:3, v/v/v)). After separation, radiolabeled lipids were visualized using a Molecular Dynamics' PhosphorImager system. The half maximal inhibitory concentrations (IC50 values) were determined using GraphPad Prism (GraphPad Software, Inc., La Jolla, Calif.).
Table 4 below provides IC50 values for the Examples in accordance with the above-described assay. Results were reported as average IC50 values, low and high IC50 range (95% confidence interval).

Sequence of hDGAT2 (Q96PD7 whole entry): as above

IC50 (hDGAT2)	IC50 [1]	Compound
122 nM	6.8 nM	CCOc1ccccc1O[C@@H]1CCCN(c2ncc(C(=O)NCc3cc(C(=O)O)ccc3OC)cn2)C1 [Example 11, (R)-3-((2-(3-(2-ethoxyphenoxy)piperidin-1-yl)pyrimidine-5-carboxamido)methyl)-4-methoxybenzoic acid]
62.3 nM	67.5 nM	CCOc1ccccc1O[C@@H]1CCCN(c2ncc(C(=O)NCc3cc(C(=O)O)cnc3C)cn2)C1 [Example 12, (R)-5-((2-(3-(2-ethoxyphenoxy)piperidin-1-yl)pyrimidine-5-carboxamido)methyl)-6-methylnicotinic acid]
35 nM	6.6 nM	CCNC(=O)c1cnc(N2CCC[C@@H](Oc3ccccc3OCC)C2)nc1 [Example 4, (R)-2-(3-(2-ethoxyphenoxy)piperidin-1-yl)-N-ethylpyrimidine-5-carboxamide]
9.7 nM	51.7 nM	CCOc1ccccc1O[C@@H]1CCCN(c2ncc(C(=O)NCc3ccnc(C(=O)O)c3)cc2F)C1 [Example 8, (R)-4-((6-(3-(2-ethoxyphenoxy)piperidin-1-yl)-5-fluoronicotinamido)methyl)picolinic acid]

— US9789110B2, “Diacylglycerol acyltransferase 2 inhibitors” (PFIZER INC., priority 2014, dated 2017)
